Test results as given in patent publication US11046709B2, “Fused 1,4-diazepines as BET bromodomain inhibitors” (THE REGENTS OF THE UNIVERSITY OF MICHIGAN, priority 2017, dated 2021).

What was measured:
recombinant BRD4 BD1 = molecular target: T1, recombinant BRD4 BD1 (Homo sapiens, UniProt O60885); assay: Competitive fluorescence-polarization (FP) binding assay, BRD4 BD1; details: competitive FP, Table 6; read-out: IC50 as determinined in FP assays BRD4 BD1
T1 construct: for recombinant BRD4 BD1 and BRD4 BD2 proteins

recombinant BRD4 BD2 = molecular target: T2, recombinant BRD4 BD2 (Homo sapiens, UniProt O60885); assay: Competitive fluorescence-polarization (FP) binding assay, BRD4 BD2; details: competitive FP, Table 6; read-out: IC50 as determinined in FP assays BRD4 BD2
T2 construct: for recombinant BRD4 BD1 and BRD4 BD2 proteins

RS4;11 = assay: Cell growth inhibition, 4-day proliferation assay, RS4;11; assay type: cell-based; details: Homo sapiens, RS4-11; WST-8 assay, Table 7; read-out: Cell growth inhibition (IC50 (nM)) RS4;11
Experimental: The effect of representative Compounds of the Disclosure on cell viability was determined in a 4-day proliferation assay. Cells were maintained in the appropriate culture medium with 100/0 FBS at 37° C. and an atmosphere of 5% CO2. All the cell lines were used within three months of thawing fresh vials.
In general, cells were seeded in 96-well flat bottom (Corning COSTAR, Corning, N.Y., cat #3595) or white opaque cell culture plates (BD Falcon, cat #353296) at a density of 3,000-10,000 cells/well in 75 μl of culture medium. Compounds were serially diluted in the appropriate medium, and 75 μl of the diluted compounds were added to the appropriate wells of the cell plate. After the addition of compounds, the cells were incubated at 37° C. in an atmosphere of 5% CO2 for 4 days. Cell viability was determined using the CellTiter-Glo® Luminescent Cell Viability Assay Kit (Promega, Madison, Wis.) for leukemia cells and WST (2-(2-methoxy-4-nitrophenyl)-3-(4-nitrophenyl)-5-(2,4-disulfophenyl)-2H-tetrazolium, monosodium salt) Cell Counting-8 Kit (Dojindo Molecular Technologies, Inc., Rockville, Md.) for adherent cells according to the manufacturers' instructions.
For WST assay (adherent cells), WST-8 reagent was added to each well at a final concentration of 10% (v/v), and then the plates were incubated at 37° C. for 1-2 hours for color development. The absorbance was measured at 450 nm using a SPECTRAmax PLUS plate reader (Molecular Devices, Sunnyvale, Calif.). The readings were normalized to the DMSO-treated cells and the half maximal inhibitory concentration (IC50) was calculated by nonlinear regression (four parameters sigmoid fitted with variable slope, least squares fit, and no constraint) analysis using the GraphPad Prism 5 software (GraphPad Software, La Jolla, Calif.).
For CellTiter-Glo assay (suspension cells), 100 μl of CellTiter-Glo® Reagent was added to each well, and then the plates were incubated at room temperature for 10-20 minutes. The luminescent signal was measured using a Tecan Infinite M1000 multimode microplate reader (Tecan, Morrisville, N.C.). The readings were normalized to the DMSO-treated cells and the IC50 was calculated by nonlinear regression (four parameters sigmoid fitted with variable slope, least squares fit, and no constraint) analysis using the GraphPad Prism 5 software. See US 2014/0256706.
For a number of representative compounds in Table 5, their IC50 values in cell growth inhibition activity in the RS4;11 and MOLM-13 human leukemia cell lines and the MDA-MB-231 breast cancer cell line were evaluated using the WST-8 assay described in EXAMPLE 7, with the data shown in Table 7.

MOLM-13 = assay: Cell growth inhibition, 4-day proliferation assay, MOLM-13; assay type: cell-based; details: Homo sapiens, MOLM-13, WST-8 assay, Table 7; read-out: Cell growth inhibition (IC50 (nM)) MOLM-13
BRD2 BD1 = BRD2 BD1 (Homo sapiens, UniProt P25440); assay: Competitive FP binding assay, BRD2 BD1; details: Table 8, read-out: IC50 (nM) in FP assays BRD2 BD1
BRD2 BD1, sequence (P25440 74-180 limits assumed): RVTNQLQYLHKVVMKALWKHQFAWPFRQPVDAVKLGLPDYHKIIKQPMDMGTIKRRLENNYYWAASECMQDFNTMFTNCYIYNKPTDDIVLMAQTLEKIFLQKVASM
Experimental: (§1) Fluorescence Polarization (FP) competitive binding studies were carried out using a FAM labeled fluorescent probe, see, e.g., Cpd. No. 350 of US 2014/0256706, to determine binding affinities of representative Compounds of the Disclosure for recombinant BRD4 BD1 and BRD4 BD2 proteins. Equilibrium dissociation constants (Kd) values of the fluorescent probe to BRD4 BD1 and BD2 proteins were determined from protein saturation experiments by monitoring the total fluorescence polarization of mixtures composed with the fluorescent probe at a fixed concentration and proteins with increasing concentrations up to full saturation. Serial dilutions of testing proteins were mixed with the fluorescent probe to a final volume of 200 μl in the assay buffer (100 mM phosphate buffer, pH=6.5, 0.01% Triton X-100 (Sigma, 282103) being added right before assays). Final fluorescent probe concentration was 1.5 nM for both proteins. Plates were incubated at room temperature for 30 minutes with gentle shaking to assure equilibrium. FP values in millipolarization units (mP) were measured using the Infinite M-1000 plate reader (Tecan U.S., Research Triangle Park, N.C.) in Microfluor 1 96-well, black, round-bottom plates (Thermo Scientific, Waltham, Mass.) at an excitation wavelength of 485 nm and an emission wavelength of 530 nm. Kd values of the fluorescent probe, which were calculated by fitting the sigmoidal dose-dependent FP increases as a function of protein concentrations using Graphpad Prism 6.0 software (Graphpad Software, San Diego, Calif.), are 5.5 and 3.0 nM to BDR4 BD1 and 2, respectively.
(§2) The IC50 and Ki values of compounds were determined in a competitive binding experiment. See US 2014/0256706. Mixtures of 10 μl of the tested compounds in assay buffer with 40% Ethylene Glycol and 190 μl of preincubated protein/probe complex solution in the assay buffer (100 mM potassium phosphate, pH 6.5, 0.01% Triton X-100) were added into assay plates which were incubated at room temperature for 30 minutes with gentle shaking. Final concentrations of proteins were 10 and 6 nM in assays for BRD4 BD1 and BD2, respectively. Final probe concentration is 1.5 nM in both assays. […] FP values were measured as described above. IC50 values were determined by nonlinear regression fitting of the competition curves. Instead of being calculated from IC50 values as described before. […]
(§3) For several representative compounds in Table 5, their binding affinities to BRD2 BD1 and BD2 proteins, and BRD3 BD1 and BD2 proteins were determined using the Competitive Fluorescence-Polarization (FP) Assays described in Example 6, with the data included in Table 8.

BRD2 BD2 = BRD2 BD2 (Homo sapiens, UniProt P25440); assay: Competitive FP binding assay, BRD2 BD2; details: Table 8, read-out: IC50 (nM) in FP assays BRD2 BD2
BRD2 BD2, sequence (P25440 344-453 limits assumed): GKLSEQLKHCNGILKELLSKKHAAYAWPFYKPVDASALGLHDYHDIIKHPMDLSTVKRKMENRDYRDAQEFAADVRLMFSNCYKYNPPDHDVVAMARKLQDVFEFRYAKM
Experimental: as §1, §2, §3

BRD3 BD1 = BRD3 BD1 (Homo sapiens, UniProt Q15059); assay: Competitive FP binding assay, BRD3 BD1; details: Table 8, read-out: IC50 (nM) in FP assays BRD3 BD1
BRD3 BD1, sequence (Q15059 34-140 limits assumed): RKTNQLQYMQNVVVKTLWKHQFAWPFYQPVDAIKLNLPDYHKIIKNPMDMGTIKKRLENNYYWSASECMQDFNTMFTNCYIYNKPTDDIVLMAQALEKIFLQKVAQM
Experimental: as §1, §2, §3

BRD3 BD2 = BRD3 BD2 (Homo sapiens, UniProt Q15059); assay: Competitive FP binding assay, BRD3 BD2; details: Table 8, read-out: IC50 (nM) in FP assays BRD3 BD2
BRD3 BD2, sequence (Q15059 306-415 limits assumed): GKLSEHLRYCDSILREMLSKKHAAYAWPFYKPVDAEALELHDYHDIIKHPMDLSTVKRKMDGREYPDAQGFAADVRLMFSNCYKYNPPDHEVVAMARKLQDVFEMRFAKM
Experimental: as §1, §2, §3

[1] = Plasma exposure after oral gavage in mice, LC-MS/MS; assay type: in vivo; details: mouse, plasma, mice, oral gavage 25 mg/kg; for concentration at 1 h: read-out: Plasma concentration (ng/mL) 1 h; for concentration at 3 h: read-out: Plasma concentration (ng/mL) 3 h; for concentration at 6 h: read-out: Plasma concentration (ng/mL) 6 h
Experimental: For a number of representative compounds in Table 5, their plasma exposures with oral administration in mice via oral gavage were determined by LC-MS/MS, with the data shown in Table 9.

MDA-MB-231 = assay: Cell growth inhibition, 4-day proliferation assay, MDA-MB-231; assay type: cell-based; details: Homo sapiens, MDA-MB-231; WST-8 assay, Table 7; read-out: Cell growth inhibition (IC50 (nM)) MDA-MB-231
Summary of the method: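 Cells seeded at 3,000-10,000/well, treated with serially diluted compounds 4 days at 37 °C, 5% CO2. Viability by WST-8 (10% v/v, 1-2 h, A450); readings normalized to DMSO-treated cells, IC50 by four-parameter nonlinear regression.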

SMILES: Cc1c(C#CC2CCOCC2)sc2c1C(c1ccc(Cl)cc1)=N[C@@H](CC(=O)N1CCC(O)CC1)c1nnc(C)n1-2 [Compound 159, (S)-2-(4-(4-chlorophenyl)-3,9-dimethyl-2-((tetrahydro-2H-pyran-4-yl)ethynyl)-6H-thieno[3,2-f][1,2,4]triazolo[4,3-a][1,4]diazepin-6-yl)-1-(4-hydroxypiperidin-1-yl)ethan-1-one]
- IC50 (recombinant BRD4 BD1): 36.2 nM
- IC50 (recombinant BRD4 BD2): 47.6 nM
- IC50 (RS4;11): 39.5 nM
- IC50 (MOLM-13): 35.4 nM
- IC50 (BRD2 BD1): 34.4 nM
- IC50 (BRD2 BD2): 143 nM
- IC50 (BRD3 BD1): 76.5 nM
- IC50 (BRD3 BD2): 127 nM
- concentration at 1 h [1]: 3460 ng/mL
- concentration at 3 h [1]: 2120 ng/mL
- concentration at 6 h [1]: 1700 ng/mL

SMILES: Cc1c(C#CC2CCOCC2)sc2c1C(c1ccc(Cl)cc1)=N[C@@H](CC(=O)N1CC(C)(O)C1)c1nnc(C)n1-2 [Compound 158, (S)-2-(4-(4-chlorophenyl)-3,9-dimethyl-2-((tetrahydro-2H-pyran-4-yl)ethynyl)-6H-thieno[3,2-f][1,2,4]triazolo[4,3-a][1,4]diazepin-6-yl)-1-(3-hydroxy-3-methylazetidin-1-yl)ethan-1-one]
- IC50 (recombinant BRD4 BD1): 48.3 nM
- IC50 (recombinant BRD4 BD2): 69.1 nM
- IC50 (RS4;11): 43 nM
- IC50 (MOLM-13): 24.5 nM
- IC50 (BRD2 BD1): 40.2 nM
- IC50 (BRD2 BD2): 182 nM
- IC50 (BRD3 BD1): 63.7 nM
- IC50 (BRD3 BD2): 220 nM
- concentration at 1 h [1]: 3380 ng/mL
- concentration at 3 h [1]: 1810 ng/mL
- concentration at 6 h [1]: 946 ng/mL

SMILES: Cc1c(C#CC2CCOCC2)sc2c1C(c1ccc(Cl)cc1)=N[C@@H](CC(=O)N1CCC(C)(O)CC1)c1nnc(C)n1-2 [Compound 157, (S)-2-(4-(4-chlorophenyl)-3,9-dimethyl-2-((tetrahydro-2H-pyran-4-yl)ethynyl)-6H-thieno[3,2-f][1,2,4]triazolo[4,3-a][1,4]diazepin-6-yl)-1-(4-hydroxy-4-methylpiperidin-1-yl)ethan-1-one]
- IC50 (recombinant BRD4 BD1): 55.2 nM
- IC50 (recombinant BRD4 BD2): 50.3 nM
- IC50 (RS4;11): 37 nM
- IC50 (MOLM-13): 25.4 nM
- IC50 (BRD2 BD1): 39.3 nM
- IC50 (BRD2 BD2): 146 nM
- IC50 (BRD3 BD1): 85.1 nM
- IC50 (BRD3 BD2): 120 nM
- concentration at 1 h [1]: 4630 ng/mL
- concentration at 3 h [1]: 3760 ng/mL
- concentration at 6 h [1]: 1190 ng/mL

SMILES: Cc1nnc(C[C@@H]2N=C(c3ccc(Cl)cc3)c3c(sc(C#CC4CCOCC4)c3C)-n3c(C)nnc32)o1 [Compound 145, (S)-2-((4-(4-chlorophenyl)-3,9-dimethyl-2-((tetrahydro-2H-pyran-4-yl)ethynyl)-6H-thieno[3,2-f][1,2,4]triazolo[4,3-a][1,4]diazepin-6-yl)methyl)-5-methyl-1,3,4-oxadiazole]
- IC50 (recombinant BRD4 BD1): 16.3 nM
- IC50 (recombinant BRD4 BD2): 47.5 nM
- IC50 (RS4;11): 13.3 nM
- IC50 (MOLM-13): 11.3 nM
- IC50 (MDA-MB-231): 105 nM
- IC50 (BRD2 BD1): 26 nM
- IC50 (BRD2 BD2): 50.7 nM
- IC50 (BRD3 BD1): 38.6 nM
- IC50 (BRD3 BD2): 161 nM
- concentration at 1 h [1]: 6620 ng/mL
- concentration at 3 h [1]: 4880 ng/mL
- concentration at 6 h [1]: 629 ng/mL
